The record followed here is patent publication US9156796B2, “Benzoimidazole-carboxylic acid amide derivatives as APJ receptor modulators” (SANOFI, priority 2013, dated 2015).

This assay concerns the target T1, human apelin receptor (Homo sapiens, UniProt P35414).
T1 construct: expressed in transfected cells
T1 sequence (P35414 1-380): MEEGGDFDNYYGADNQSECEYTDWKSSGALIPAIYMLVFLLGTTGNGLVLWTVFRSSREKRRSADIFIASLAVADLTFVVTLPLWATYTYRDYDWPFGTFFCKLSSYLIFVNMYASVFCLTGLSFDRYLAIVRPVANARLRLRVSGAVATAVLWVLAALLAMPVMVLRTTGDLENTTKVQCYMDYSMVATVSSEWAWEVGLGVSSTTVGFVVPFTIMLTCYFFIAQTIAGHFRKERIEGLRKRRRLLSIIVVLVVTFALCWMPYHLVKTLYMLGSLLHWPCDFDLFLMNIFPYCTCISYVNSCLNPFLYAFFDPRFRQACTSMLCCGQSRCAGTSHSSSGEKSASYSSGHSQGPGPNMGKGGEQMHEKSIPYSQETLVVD
The assay is described as follows: Determination of agonism on the human apelin receptor by a calcium fluorescence assay (FLIPR). It is filed as cell-based. As to conditions: HEK293 cells stably transfected with human apelin receptor and Giaq protein, Fluo-4 calcium fluorescence, read-out: EC50 (APJ agonism). The method, boiled down:
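Agonist EC50s come from peak intracellular calcium transients recorded by FLIPR Tetra, scaled to the 1 μM apelin-13 maximum per plate. Test system: HEK293 stably transfected with human apelin receptor plus Giaq, Fluo-4-loaded (4 μM, 1 h, 37 °C, pH 7.4 buffer with probenecid); ≥7 concentrations, triplicates.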

Usually EC50 stands for the midpoint of the concentration-response curve. Regarding `CCC(CC)n1c(Cc2cccs2)nc2cc(C(=O)N[C@@H](CC(C)C)C(=O)NCCCN3CC(C)OC(C)C3)ccc21` (stereo partly drawn) [Example 294, 1-(1-Ethyl-propyl)-2-thiophen-2-ylmethyl-1H-benzoimidazole-5-carboxylic acid {(S)-1-[3-(2,6-dimethyl-morpholin-4-yl)-propylcarbamoyl]-3-methyl-butyl}-amide], the EC50 was 722 nM. In the case of `CCC(CC)n1c(Cc2cccs2)nc2cc(C(=O)N[C@@H](CC(C)C)C(=O)NC3CCN(c4ncccn4)CC3)ccc21` [Example 352, 1-(1-Ethyl-propyl)-2-thiophen-2-ylmethyl-1H-benzoimidazole-5-carboxylic acid [(S)-3-methyl-1-(1-pyrimidin-2-yl-piperidin-4-ylcarbamoyl)-butyl]-amide], the 50% effective concentration (EC50) came out at 2980 nM. Regarding `CCC(CC)n1c(Cc2cccs2)nc2cc(C(=O)N[C@@H](CC(C)C)C(=O)N(C)Cc3n[nH]c(=O)[nH]3)ccc21` [Example 405, 1-(1-Ethyl-propyl)-2-thiophen-2-ylmethyl-1H-benzoimidazole-5-carboxylic acid {(S)-3-methyl-1-[methyl-(5-oxo-4,5-dihydro-1H-[1,2,4]triazol-3-ylmethyl)-carbamoyl]-butyl}-amide], the EC50 worked out at 842 nM. Take `CCC(CC)n1c(Cc2cccs2)nc2cc(C(=O)N[C@@H](CC(C)C)C(=O)NCC3CCCCO3)ccc21` (stereo partly drawn) [Example 386, 1-(1-Ethyl-propyl)-2-thiophen-2-ylmethyl-1H-benzoimidazole-5-carboxylic acid {(S)-3-methyl-1-[(tetrahydro-pyran-2-ylmethyl)-carbamoyl]-butyl}-amide]: the EC50 stood at 2230 nM. For `CCC(CC)n1c(Cc2cccs2)nc2cc(C(=O)N[C@@H](CC(C)C)C(=O)N3CCC[C@@H]3C(=O)O)ccc21` [Example 410, (R)-1-((S)-2-{[1-(1-Ethyl-propyl)-2-thiophen-2-ylmethyl-1H-benzoimidazole-5-carbonyl]-amino}-4-methyl-pentanoyl)-pyrrolidine-2-carboxylic acid], the EC50 is 578 nM. Regarding `CC(C)C[C@@H](CC(=O)O)NC(=O)c1ccc2c(c1)nc(Cc1cccs1)n2C1CCCC1C` (stereo partly drawn) [Example 104, (S)-5-Methyl-3-{[1-(2-methyl-cyclopentyl)-2-thiophen-2-ylmethyl-1H-benzoimidazole-5-carbonyl]-amino}-hexanoic acid], the EC50 came out at 479 nM. `CCC(CC)n1c(Cc2cccs2)nc2cc(C(=O)N[C@@H](CC(C)C)C(=O)N3CCC(OC(C)C)CC3)ccc21` [Example 375, 1-(1-Ethyl-propyl)-2-thiophen-2-ylmethyl-1H-benzoimidazole-5-carboxylic acid [(S)-1-(4-isopropoxy-piperidine-1-carbonyl)-3-methyl-butyl]-amide]: the concentration for a half-maximal effect (EC50) was 2880 nM. With `CCCCC(NC(=O)c1ccc2c(c1)nc(Cc1cccs1)n2C(CC)CC)C(C)(C)C(=O)O` (single isomer, unassigned) [Example 469], the concentration for a half-maximal effect (EC50) is 60 nM. Turning to `CCC1CCCCC1n1c(Cc2cccs2)nc2cc(C(=O)N[C@@H](CC(C)C)C(=O)O)ccc21` (stereo partly drawn) [Example 93, (S)-2-{[1-(2-Ethyl-cyclohexyl)-2-thiophen-2-ylmethyl-1H-benzoimidazole-5-carbonyl]-amino}-4-methyl-pentanoic acid], the concentration for a half-maximal effect (EC50) was found to be 291 nM. Take `CCC(CC)n1c(Cc2cccs2)nc2cc(C(=O)N[C@@H](CC(C)C)C(=O)N3CCC(N4CCN(C)CC4)CC3)ccc21` [Example 280, 1-(1-Ethyl-propyl)-2-thiophen-2-ylmethyl-1H-benzoimidazole-5-carboxylic acid {(S)-3-methyl-1-[4-(4-methyl-piperazin-1-yl)-piperidine-1-carbonyl]-butyl}-amide]: the 50% effective concentration (EC50) was 219 nM. The same measure for `CCC(CC)n1c(Cc2cccs2)nc2cc(C(=O)N[C@@H](CC(C)C)C(=O)N3CCSCC3)ccc21` [Example 217, 1-(1-Ethyl-propyl)-2-thiophen-2-ylmethyl-1H-benzoimidazole-5-carboxylic acid [(S)-3-methyl-1-(thiomorpholine-4-carbonyl)-butyl]-amide]: 2210 nM.

In the case of `CCC(CC)n1c(Cc2cccs2)nc2cc(C(=O)N[C@@H](CC(C)C)C(=O)N3CCCN(Cc4ccccc4)CC3)ccc21` [Example 323, 1-(1-Ethyl-propyl)-2-thiophen-2-ylmethyl-1H-benzoimidazole-5-carboxylic acid [(S)-1-(4-benzyl-[1,4]diazepane-1-carbonyl)-3-methyl-butyl]-amide], the concentration giving a half-maximal response (EC50) amounted to 6740 nM.

On to `CCC(CC)n1c(Cc2cccs2)nc2cc(C(=O)N[C@@H](CC(C)C)C(=O)NCCCN3CCN(C)CC3)ccc21` [Example 227, 1-(1-Ethyl-propyl)-2-thiophen-2-ylmethyl-1H-benzoimidazole-5-carboxylic acid {(S)-3-methyl-1-[3-(4-methyl-piperazin-1-yl)-propylcarbamoyl]-butyl}-amide], for which the EC50 turned out to be 287 nM.

`CCC(CC)n1c(Cc2cccs2)nc2cc(C(=O)NC(C)(Cc3ccccc3)C(=O)O)ccc21` (stereo not drawn) [Example 4, 2-{[1-(1-Ethyl-propyl)-2-thiophen-2-ylmethyl-1H-benzoimidazole-5-carbonyl]-amino}-2-methyl-3-phenyl-propionic acid]: the EC50 was 16800 nM. The same measure for `CCC(CC)n1c(Cc2cccs2)nc2cc(C(=O)NC3(C(=O)O)CCC(C)CC3)ccc21` (stereo not drawn) [Example 34, 1-{[1-(1-Ethyl-propyl)-2-thiophen-2-ylmethyl-1H-benzoimidazole-5-carbonyl]-amino}-4-methyl-cyclohexanecarboxylic acid]: 489 nM. The same measure for `CCCC[C@@H](CO)NC(=O)c1ccc2c(c1)nc(Cc1cccs1)n2C(CC)CC` [Example 199, 1-(1-Ethyl-propyl)-2-thiophen-2-ylmethyl-1H-benzoimidazole-5-carboxylic acid ((S)-1-hydroxymethyl-pentyl)-amide]: 710 nM; for `C[C@@H]1CCCC[C@H]1n1c(Cc2cccs2)nc2cc(C(=O)N[C@@H](CC3CCC3)C(=O)O)ccc21` [Example 23, (S)-3-Cyclobutyl-2-{[1-((1R,2R)-2-methyl-cyclohexyl)-2-thiophen-2-ylmethyl-1H-benzoimidazole-5-carbonyl]-amino}-propionic acid]: 106 nM. With `CCC(C)Cn1c(CC2CCCCC2)nc2cc(C(=O)N[C@@H](CC3CCCCC3)C(=O)O)ccc21` (stereo partly drawn) [Example 133, (S)-3-Cyclohexyl-2-{[2-cyclohexylmethyl-1-(2-methyl-butyl)-1H-benzoimidazole-5-carbonyl]-amino}-propionic acid], the concentration for a half-maximal effect (EC50) is 2350 nM.

Take `C[C@@H]1CCCC[C@H]1n1c(Cc2cccs2)nc2cc(C(=O)NC(CC(=O)O)CC3CCCCC3)ccc21` (stereo partly drawn) [Example 51, 4-Cyclohexyl-3-{[1-((1R,2R)-2-methyl-cyclohexyl)-2-thiophen-2-ylmethyl-1H-benzoimidazole-5-carbonyl]-amino}-butyric acid]: the concentration for a half-maximal effect (EC50) was 211 nM. Regarding `CCC(CC)n1c(Cc2cccs2)nc2cc(C(=O)NC(CC3CCCCCC3)C(=O)O)ccc21` (stereo not drawn) [Example 39, 3-Cycloheptyl-2-{[1-(1-ethyl-propyl)-2-thiophen-2-ylmethyl-1H-benzoimidazole-5-carbonyl]-amino}-propionic acid], the EC50 was determined as 1140 nM. `CC1CCCCC1n1c(Cc2cccs2)nc2cc(C(=O)N[C@@H](CC3CCCCC3)C(=O)O)ccc21` (single isomer, unassigned) [Example 425]: the EC50 is 2680 nM.

As to `CCC(CC)n1c(Cc2cccs2)nc2cc(C(=O)N[C@@H](CC(C)C)C(=O)NC3CCN(Cc4cccnc4)CC3)ccc21` [Example 308, 1-(1-Ethyl-propyl)-2-thiophen-2-ylmethyl-1H-benzoimidazole-5-carboxylic acid [(S)-3-methyl-1-(1-pyridin-3-ylmethyl-piperidin-4-ylcarbamoyl)-butyl]-amide], the EC50 amounted to 672 nM. `CCC(CC)n1c(Cc2cccs2)nc2cc(C(=O)NC(CC(C)C)C(C)(C)C(=O)O)ccc21` (stereo not drawn) [Example 62, 3-{[1-(1-Ethyl-propyl)-2-thiophen-2-ylmethyl-1H-benzoimidazole-5-carbonyl]-amino}-2,2,5-trimethyl-hexanoic acid]: the EC50 was determined as 193 nM.

With `CCC(CC)n1c(Cc2cccs2)nc2cc(C(=O)NC(CC3CCCC3)C(=O)O)ccc21` (stereo not drawn) [Example 11, 3-Cyclopentyl-2-{[1-(1-ethyl-propyl)-2-thiophen-2-ylmethyl-1H-benzoimidazole-5-carbonyl]-amino}-propionic acid], the 50% effective concentration (EC50) is 65 nM.

For `CCC(CC)n1c(Cc2cccs2)nc2cc(C(=O)N[C@@H](CC(C)C)C(=O)N3CCC[C@H]3COC)ccc21` [Example 384, 1-(1-Ethyl-propyl)-2-thiophen-2-ylmethyl-1H-benzoimidazole-5-carboxylic acid [(S)-1-((S)-2-methoxymethyl-pyrrolidine-1-carbonyl)-3-methyl-butyl]-amide], the EC50 amounted to 1630 nM.

In the case of `C[C@@H]1CCCC[C@H]1n1c(Cc2cncs2)nc2cc(C(=O)N[C@@H](CC3CCCCC3)C(=O)O)ccc21` [Example 37, (S)-3-Cyclohexyl-2-{[1-((1R,2R)-2-methyl-cyclohexyl)-2-thiazol-5-ylmethyl-1H-benzoimidazole-5-carbonyl]-amino}-propionic acid], the 50% effective concentration (EC50) was 886 nM. The same measure for `CCC(CC)n1c(Cc2cccs2)nc2cc(C(=O)NC(CC(C)C)C(N)=O)ccc21` (stereo not drawn) [Example 171, 1-(1-Ethyl-propyl)-2-thiophen-2-ylmethyl-1H-benzoimidazole-5-carboxylic acid (1-carbamoyl-3-methyl-butyl)-amide]: 748 nM.
